Patent US20100184703A1, “USE OF PEPTIDE DERIVATIVES FOR TREATING PATHOLOGIES RESULTING FROM ISCHEMIA” (CHIESI FARMACEUTICI S.p.A., priority 2007, published 2010)
Entries after “also recorded” stand apart in the source; their conditions may differ. Peptide text beside a SMILES is read from it. * marks the point of attachment. X1 = COC(=O)CC(N*)C(=O)COc1c(F)cccc1F; Quinaldoyl = O=C(c1ccc2ccccc2n1)*

Key:
[1] = system: single ventricular cardiomyocytes; assay: Ca2+ handling and cell shortening of cardiomyocytes isolated after ischemia-reperfusion; type: in vivo, rat; conditions: 30 min ischemia, 10 days reperfusion; for sarcoplasmic reticulum Ca2+ load: 10 mM caffeine, versus sham-operated; for amplitude of cytosolic Ca2+ transients: 0.5 Hz field stimulation
Experimental: Experiments were carried out on single ventricular cardiomyocytes isolated from rats after 30 minutes of myocardial ischemia followed by 10 days of reperfusion. Cardiomyocytes were loaded with a fluorescent calcium indicator (Fluo4) in order to measure calcium transient evoked by 0.5 Hz field stimulation. Cell shortening was also simultaneously recorded as an index of cardiomyocyte contraction. […] These deleterious effects classically reported by others in similar experimental conditions Under TRP601 or QV-D-oph treatment Ca^2+ transients amplitude was unchanged B. Similarly, Ca^2+ release kinetics estimated by the amplitude/time to peak (TT) ratio was slowed down in cardiomyocytes of untreated animals, whereas under TRP601 or QV-D-oph treatment Ca^2+ release was unaffected. C. Altered Ca^2+ transient kinetics in vehicle-treated animal are accompanied by a decrease in sarcoplasmic reticulum Ca^2+ load (estimated by application of 10 mM caffeine). […] (*p<0.05 compared to sham-operated animals, n≧5 animals).

[2] = system: ANF, BNP, fibronectin, β-MHC, TNFR1, TNFR2, TNFα, caspase-2 mRNA; assay: Quantitative RT-PCR of heart failure, fibrosis, hypertrophy and TNFα signaling markers after ischemia/reperfusion; type: in vivo, rat; conditions: IR model; for mRNA expression level of TNFα / mRNA expression level of TNFα receptor 1 (TNFR1) / mRNA expression level of TNFα receptor 2 (TNFR2) / mRNA expression level of caspase-2: increase in vehicle-injected animals; for mRNA expression level of β-Myosin Heavy Chain (β-MHC): marker for hypertrophy development; for mRNA expression level of fibronectin: marker of fibrosis development; for mRNA expression level of Atrial Natriuretic Factor (ANF) / mRNA expression level of brain natriuretic peptide (BNP): marker of heart failure
Experimental: In a second series of experiments, quantitative RT-PCR was performed to evaluate the level of expression of 2 markers of heart failure, Atrial Natriuretic Factor (ANF) and Brain Natriuretic Factor (BNP) as well as a marker of myocardial fibrosis, fibronectine, and myocardial hypertrophy, βMHC. […] B. mRNA expression levels of fibronectin a marker of fibrosis development, and β-Myosin Heavy Chain (β-MHC) a marker for hypertrophy development

[3] = molecular target: T1, caspase-3 (Rattus norvegicus, UniProt P55213); assay: Dosage of caspase-3 activity in myocardial tissue, reperfusion ischemia (IR) model; type: in vivo; conditions: administered 15 min before the reperfusion, VGZI, VD, Apex and VGZNI
T1 construct: from tissue; host or cells: rat myocardium (left ventricle, right ventricle, septum, apex) extracts
T1 sequence (P55213 29-175 limits assumed): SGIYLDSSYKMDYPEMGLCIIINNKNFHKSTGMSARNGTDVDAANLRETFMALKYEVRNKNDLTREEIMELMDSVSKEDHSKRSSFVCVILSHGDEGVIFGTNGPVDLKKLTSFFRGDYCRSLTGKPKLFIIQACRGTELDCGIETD
T1 sequence (P55213 176-277 limits assumed): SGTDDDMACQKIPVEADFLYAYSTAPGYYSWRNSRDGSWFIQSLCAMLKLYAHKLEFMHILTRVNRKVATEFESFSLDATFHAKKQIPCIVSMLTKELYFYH
Experimental: The analyses were performed on 2 myocardial ischemia models: a chronic ischemia model and an acute ischemia model, followed by myocardial reperfusion after 30 min of occlusion.
Said models were realized with Wistar male rats (180-220 g). The coronary artery was ligatured according to Pfeffer et al protocol.
Briefly, the rats were anaesthetized by intraperitoneal administration of a mixture of Ketamine (150 mg/kg) and Xylazine (15 mg/kg), then intubated and mechanically ventilated. The animals were submitted to a left and median thoracotomy. An occlusion of the coronary artery was done with a silk wire (size: 7.0) at the more proximal point and below the auricle.
In the case of reperfusion ischemia model (IR model), the silk wire was untied after 30 min of occlusion. The artery was then cleared and the myocardial territory reperfused. The control animals (sham operated) were submitted to the same surgery protocol as the above animals, but the silk wire was passed under the coronary without making any ligature.
The animals were sacrificed by a pentobarbital lethal injection. The heart was excised and perfused about 5 min by Langerdorf reverse way using a calcium-free washing solution (in mM: NaCl 117 mM, KCl 5.7, NaHCO3 4.4, KH2PO4 1.5, MgCl2 1.7, HEPES 21, glucose 11, taurine 20, pH 7.2 adjusted with NaOH). The heart was then placed into a dissection tank and the different myocardial territories were taken (i.e. right ventricle (VD), septum, Apex, left ventricle (selectively in infarcted area (VGZI) and non-infarcted area (VGZNI)). Each fragment of tissue was rapidly frozen in liquid nitrogen and kept at −80° C.
Each tissue was then thawed and about 1-2 mm^3 was taken. […]
The supernatant was taken and divided into 2 tubes for of each sample. The tubes were placed at −80° C. before performing the spectrophotometric proteic dosage (BCA: cupper (II) sulphate+solution A of bicinchronic acid, DO measured at 550 nm) in transparent, with flat bottom, 96-well plates. […]

[4] = system: TNFα, IL1β, IL10; assay: Multiplex assay (Luminex) of circulating cytokines after ischemia-reperfusion; type: in vivo, rat; conditions: IR model; for circulating level of TNFα: injected 15 min prior to the reperfusion, compared to sham-operated; for IL-1β elevation / IL-10 elevation: within the first 24 hours of reperfusion
Experimental: Another series of experiments was conducted in the rat model of ischemia-reperfusion. Ischemia and reperfusion is well known to trigger an acute inflammatory process in animal model as well as in human. In our rat model, at the euthanasia, blood sample were collected in order to measure the inflammatory response on sera. This was performed by multiplex assay (Luminex technology). Three parameters were simultaneously measured at various time after myocardial reperfusion the pro inflammatory cytokines TNFα and IL1β as well as the anti-inflammatory cytokine IL10. […] B-C. […] In summary, caspase 2 inhibition prevents the acute inflammatory response occurring during the first 24 hours after myocardial reperfusion. *p<0.05 compared to sham-operated animals, n≧5 animals.

SMILES	Ca2+ release kinetics (amplitude/time to peak ratio) [1]	cell shortening [1]	sarcoplasmic reticulum Ca2+ load [1]	amplitude of cytosolic Ca2+ transients [1]	mRNA expression level of TNFα [2]	mRNA expression level of TNFα receptor 1 (TNFR1) [2]	mRNA expression level of TNFα receptor 2 (TNFR2) [2]	mRNA expression level of caspase-2 [2]	mRNA expression level of β-Myosin Heavy Chain (β-MHC) [2]	mRNA expression level of fibronectin [2]	mRNA expression level of Atrial Natriuretic Factor (ANF) [2]	mRNA expression level of brain natriuretic peptide (BNP) [2]	caspase-3 activity [3]	circulating level of TNFα [4]	IL-1β elevation [4]	IL-10 elevation [4]	caspase-3 activity ([3]; listed as QVDOPH)
COC(=O)CC(NC(=O)[C@H](C)NC(=O)[C@@H](NC(=O)[C@H](CC(=O)OC)NC(=O)[C@@H](NC(=O)c1ccc2ccccc2n1)C(C)C)C(C)C)C(=O)COc1c(F)cccc1F (stereo partly drawn) [D1, (3S,6S,9S,12S)-methyl 15-(2-(2,6-difluorophenoxy)acetyl)-3,9-diisopropyl-6-(2-methoxy-2-oxoethyl)-12-methyl-1,4,7,10,13-pentaoxo-1-(quinolin-2-yl)-2,5,8,11,14-pentaazaheptadecan-17-oate] (Quinaldoyl-VD(OMe)VA-X1)	unaffected	avoided cell shortening decreasing	not significantly different	unchanged	prevented	prevented	prevented	prevented	blocked	blocked	comparable to sham-operated animals	comparable to sham-operated animals	normalization of the activity; also recorded: prevents the further activation	not significantly different	prevented	prevented	–
CC(C)[C@H](NC(=O)c1ccc2ccccc2n1)C(=O)N[C@@H](CC(=O)O)C(=O)COc1c(F)cccc1F [Q-VD-OPH]	unaffected	avoided cell shortening decreasing	not significantly different	unchanged	prevented	prevented	prevented	prevented	blocked	blocked	comparable to sham-operated animals	comparable to sham-operated animals	inhibits the activity of both caspases	not significantly different	prevented	prevented	normalization of the activity
